From US20260274895A1, “DE NOVO DESIGNED MEMBRANE-TRAVERSING AND ORALLY BIOAVAILABLE MACROCYCLES” (UNIVERSITY OF WASHINGTON, priority 2022, published 2026)
Read-outs that look alike come from different tables or passages of the source. Each block holds one molecule with its values, some of them ahead of it. Where a SMILES comes first, the peptide text is derived from it. [ ]: non-standard residue; d: D form. dNMeI = CC[C@@H](C)[C@@H](NC)C(=O)O; NMeL = CN[C@@H](CC(C)C)C(=O)O; dNMeL = CN[C@H](CC(C)C)C(=O)O; dNMeV = CN[C@@H](C(=O)O)C(C)C; dNMeA = CN[C@H](C)C(=O)O; Sar = CNCC(=O)O

Experiments:
[1] = Plasma exposure, oral bioavailability and tolerability after single-dose IV, SQ and PO administration; details: in vivo
in vivo = details: male, Swiss Albino, mouse; for level at 0.08 h / level at 0.25 h / level at 0.5 h / level at 1 h / level at 3 h / level at 5 h / level at 8 h / level at 24 h: Plasma concentration
[2] = PAMPA
[3] = mouse, in vivo, iv
[4] = mouse, in vivo
[5] = Parallel artificial membrane permeability assay (PAMPA); details: average of three replicates; 16-20 hours incubation, 5% DMSO PBS

Structure (SMILES): CC[C@@H](C)[C@H]1NC(=O)[C@@H]2CCCN2C(=O)[C@@H]([C@H](C)CC)NC(=O)CN(C)C(=O)[C@H](CC(C)C)NC(=O)[C@@H](Cc2ccccc2)NC(=O)[C@H](CC(C)C)N(C)C(=O)[C@H]2CCCN2C(=O)[C@@H](CC(C)C)NC(=O)[C@H](CC(C)C)NC(=O)[C@H]2CCCN2C1=O [Design D11.2] (cyclo(L[Sar][dI]P[dI][dP]L[dL][dP][NMeL][dF]))
bioavailability [1]: 7.5 to 11%

level at 0.08 h (in vivo; iv, 1 mg/kg): 3750 ng/mL
level at 0.25 h (in vivo; iv, 1 mg/kg): 3350 ng/mL
level at 0.5 h (in vivo; iv, 1 mg/kg): 2010 ng/mL
level at 1 h (in vivo; iv, 1 mg/kg): 1140 ng/mL
level at 3 h (in vivo; iv, 1 mg/kg): 512 ng/mL
level at 5 h (in vivo; iv, 1 mg/kg): 267 ng/mL
level at 8 h (in vivo; iv, 1 mg/kg): 235 ng/mL
level at 24 h (in vivo; iv, 1 mg/kg): 27.6 ng/mL
level at 0.08 h (in vivo; po, 10 mg/kg): 69.6 ng/mL
level at 0.25 h (in vivo; po, 10 mg/kg): 750 ng/mL
level at 0.5 h (in vivo; po, 10 mg/kg): 2520 ng/mL
level at 1 h (in vivo; po, 10 mg/kg): 2960 ng/mL
level at 3 h (in vivo; po, 10 mg/kg): 3500 ng/mL
level at 5 h (in vivo; po, 10 mg/kg): 2540 ng/mL
level at 8 h (in vivo; po, 10 mg/kg): 1480 ng/mL
level at 24 h (in vivo; po, 10 mg/kg): 95 ng/mL
bioavailability (in vivo; sc, 5 mg/kg): 8.48%
level at 0.08 h (in vivo; sc, 5 mg/kg): 12.4 ng/mL
level at 1 h (in vivo; sc, 5 mg/kg): 44.1 ng/mL
level at 3 h (in vivo; sc, 5 mg/kg): 128 ng/mL
level at 5 h (in vivo; sc, 5 mg/kg): 148 ng/mL
level at 8 h (in vivo; sc, 5 mg/kg): 114 ng/mL
level at 24 h (in vivo; sc, 5 mg/kg): 57.6 ng/mL
PAMPA_Papp_Avg (apparent permeability) [2]: 1.48 ×10⁻⁶ cm/s
half-life [3]: 5.58 h
F ([4]; 10 mg/kg): 40.06%
AUC0-inf ([4]; iv, 1 mg/kg): 7187.15 ng·h/mL
AUC0-last ([4]; iv, 1 mg/kg): 6965.11 ng·h/mL
AUCExtra ([4]; iv, 1 mg/kg): 3.09%
C0 ([4]; iv, 1 mg/kg): 3957.56 ng/mL
Cl ([4]; iv, 1 mg/kg): 2.32 mL/min/kg
MRT0-last ([4]; iv, 1 mg/kg): 4.64 h
T½ ([4]; iv, 1 mg/kg): 5.58 h
Vd ([4]; iv, 1 mg/kg): 1.12 L/kg
AUC0-inf ([4]; po, 10 mg/kg): 28793.58 ng·h/mL
AUC0-last ([4]; po, 10 mg/kg): 28242.38 ng·h/mL
AUCExtra ([4]; po, 10 mg/kg): 1.91%
MRT0-last ([4]; po, 10 mg/kg): 6.32 h
AUC0-inf ([4]; sc, 5 mg/kg): 3047.15 ng·h/mL
AUC0-last ([4]; sc, 5 mg/kg): 2122.81 ng·h/mL
AUCExtra ([4]; sc, 5 mg/kg): 30.33%
MRT0-last ([4]; sc, 5 mg/kg): 10.71 h
Structure (SMILES): CC[C@@H](C)[C@H]1NC(=O)[C@H]([C@@H](C)CC)NC(=O)[C@H](CC(C)C)N(C)C(=O)[C@H]2CCCN2C(=O)[C@@H]([C@H](C)CC)NC(=O)[C@@H]([C@H](C)CC)N(C)C(=O)[C@H](CC(C)C)NC(=O)[C@H]2CCCN2C(=O)[C@@H]2CCCN2C(=O)[C@H](C(C)C)NC(=O)[C@H]2CCCN2C1=O [Design D11.3, VPpL*iip*LIip] (cyclo(I[dI][dP]VP[dP]L[dNMeI][dI][dP][NMeL]))

Structure (SMILES): CC[C@@H](C)[C@H]1NC(=O)[C@@H](CC(C)C)N(C)C(=O)[C@@H]2CCCN2C(=O)[C@H](C(C)C)NC(=O)[C@@H](C)N(C)C(=O)[C@@H]2CCCN2C(=O)[C@@H](CC(C)C)NC(=O)[C@@H](C(C)C)N(C)C(=O)[C@@H]2CCCN2C(=O)[C@H](C)NC(=O)[C@H](C(C)C)NC(=O)[C@@H]2CCCN2C1=O [SEQ ID NO 117, VP*liPVAP*vlP*a] (cyclo(AP[dNMeV][dL]P[dNMeA]VP[dNMeL][dI]PV))
PAMPA_Papp_Avg (apparent permeability) [5]: 0.1 ×10⁻⁶ cm/s
